According to paper PMC9124820, “In vitro evaluation of fenfluramine and norfenfluramine as victims of drug interactions” (Pharmacology Research & Perspectives, 2022):

Experiments:
[1] = target: T1, OAT1 (Homo sapiens, UniProt Q4U2R8); assay: Transporter substrate determination, uptake in HEK293-OAT1 cells; assay type: in vitro ADME; conditions: for Maximum Ratio (uptake in transporter‐expressing cells to empty‐vector control cells): HEK293‐OAT1, 0.1, 1, 10 µM, threshold ≥2‐fold; for substrate of the transporter: OAT1
T1 construct: host or cells: HEK293
T1 sequence (Q4U2R8 1-563): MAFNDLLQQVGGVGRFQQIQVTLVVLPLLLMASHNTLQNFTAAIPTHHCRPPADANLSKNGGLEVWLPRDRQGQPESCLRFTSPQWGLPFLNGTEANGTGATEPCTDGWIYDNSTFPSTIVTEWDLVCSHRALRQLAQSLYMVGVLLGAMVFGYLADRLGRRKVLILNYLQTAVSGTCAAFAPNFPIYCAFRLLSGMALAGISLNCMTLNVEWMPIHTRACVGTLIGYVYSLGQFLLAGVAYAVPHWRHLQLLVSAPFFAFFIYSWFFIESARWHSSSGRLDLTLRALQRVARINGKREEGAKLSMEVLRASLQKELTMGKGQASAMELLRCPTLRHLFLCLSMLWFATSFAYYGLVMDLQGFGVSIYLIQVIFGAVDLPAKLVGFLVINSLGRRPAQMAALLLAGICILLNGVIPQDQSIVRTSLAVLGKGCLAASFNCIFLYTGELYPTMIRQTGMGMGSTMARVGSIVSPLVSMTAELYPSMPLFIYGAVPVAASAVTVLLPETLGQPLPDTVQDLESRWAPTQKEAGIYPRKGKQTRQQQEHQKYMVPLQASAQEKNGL
Procedure: (§1) LC‐MS/MS analyses to assess metabolic stability and identify the transporter substrate were performed using an API 4000 QTRAP mass spectrometer (SCIEX, Framingham, MA) with electrospray ionization in positive mode. Chromatography was performed using an Atlantis dC18 analytical column (100 × 2.1 mm, 5 µm; Waters Corporation, Milford, MA). Mobile phases were 0.2% v/v formic acid in water and 0.2% v/v formic acid in acetonitrile. For metabolic stability experiments, FFA and metabolites were eluted at a flow rate of 0.6 mL/min, with a linear gradient of 20%−80% acetonitrile from 0.30−2.0 min. For transporter substrate experiments, the gradient was slightly modified to achieve suitable chromatography. The mass transitions monitored were 232.0 > 159.0 for FFA and 348.0 > 330.0 for 1ʹ‐OH‐midazolam‐d4 internal standard.
(§2) FFA and nFFA were evaluated as substrates of the transporters breast cancer resistance protein (BCRP), organic anion transporter (OAT)1, OAT3, organic cation transporter (OCT)2, MATE1, MATE2‐K, and P‐glycoprotein multidrug transporter (P‐gp; also known as MDR1 and ABCB1), according to published methods.[25], [26], [27], [28], [29] Madin‐Darby canine kidney (MDCKII)‐BCRP cells (Netherlands Cancer Institute, Amsterdam, Netherlands) or human embryonic kidney (HEK)293 cells transfected with other transporters (Sekisui Medical Co., Ltd., Tokyo, Japan) were used. Transporter‐transfected and control cells were incubated with FFA or nFFA (0.1, 1, or 10 μM), and the amount of FFA and nFFA accumulated in the cells was measured by LC‐MS/MS as described above. The accumulation of positive control substrates in the presence and absence of an inhibitor served as a positive control for transporter function. […] BCRP substrate determination was made by bi‐directional permeability across MDCKII‐BCRP and control cells cultured on 24‐well transwell plates. Incubation medium containing probe substrate was added. Ten minutes later, transepithelial electrical resistance (TEER) was recorded and cells were preincubated at 37 ± 2°C for 30−60 min before FFA or nFFA or positive control substrate with the solvent control or positive control inhibitor was added to the donor (apical) chamber. […] Samples containing FFA, nFFA, or probe substrate were mixed with internal standard and analyzed by LC‐MS/MS. […] An aliquot was added to 96‐well plate containing scintillation fluid that was analyzed by a MicroBeta^2 scintillation counter (Perkin Elmer, Waltham, MA). Protein concentration was determined by a bicinchoninic acid (BCA) protein assay according to the manufacturer’s protocol (Thermo Fisher Scientific, Waltham, MA). Non‐radiolabeled compounds were resuspended in a 50:50 v/v methanol:water solution containing internal standard and were analyzed by LC‐MS/MS. […]

[2] = target: T2, OAT3 (Homo sapiens, UniProt Q8TCC7); assay: Transporter substrate determination, uptake in HEK293-OAT3 cells; assay type: in vitro ADME; conditions: for Maximum Ratio (uptake in transporter‐expressing cells to empty‐vector control cells): HEK293‐OAT3, 0.1, 1, 10 µM, threshold ≥2‐fold; for substrate of the transporter: OAT3
T2 construct: host or cells: HEK293
T2 sequence (Q8TCC7 1-542): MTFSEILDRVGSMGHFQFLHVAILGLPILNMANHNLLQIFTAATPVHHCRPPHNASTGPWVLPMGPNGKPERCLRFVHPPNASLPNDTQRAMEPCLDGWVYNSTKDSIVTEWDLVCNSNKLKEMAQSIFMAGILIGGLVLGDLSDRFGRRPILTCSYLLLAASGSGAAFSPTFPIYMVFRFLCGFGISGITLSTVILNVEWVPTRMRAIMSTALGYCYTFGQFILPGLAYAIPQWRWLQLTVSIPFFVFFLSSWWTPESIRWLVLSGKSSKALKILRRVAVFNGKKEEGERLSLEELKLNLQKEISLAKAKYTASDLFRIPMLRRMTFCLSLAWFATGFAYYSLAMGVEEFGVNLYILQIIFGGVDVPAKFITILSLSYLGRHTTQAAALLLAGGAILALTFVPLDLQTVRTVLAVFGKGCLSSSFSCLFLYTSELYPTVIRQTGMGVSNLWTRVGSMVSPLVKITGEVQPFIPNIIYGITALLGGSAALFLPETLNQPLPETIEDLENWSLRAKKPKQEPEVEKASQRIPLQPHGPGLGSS
Procedure: as §1, §2

SMILES | Maximum Ratio (uptake in transporter‐expressing cells to empty‐vector control cells) [1] | substrate of the transporter [1] | Maximum Ratio (uptake in transporter‐expressing cells to empty‐vector control cells) [2] | substrate of the transporter [2]
CCNC(C)Cc1cccc(C(F)(F)F)c1 (racemic) [FFA, (RS)‐ethyl (α‐methyl‐3‐trifluoromethylphenethyl)amine] | 1.22 | not substrates | 1.15 | not substrates
CC(N)Cc1cccc(C(F)(F)F)c1.Cl (centres unmarked) [nFFA, 1‐(3‐(trifluoromethyl)phenyl)propan‐2‐amine hydrochloride] | 1.13 | not substrates | 1.74 | not substrates
